Assay results taken from patent US11845724B2, “USP30 inhibitors and uses thereof” (Vincere Biosciences, Inc., priority 2019, dated 2023).
Counter-ions that a name gives are not always drawn.

target: recombinant USP30 (amino acids 57-517 of the human sequence) (Homo sapiens (Human), UniProt Q70CQ3); assay: In vitro USP30 biochemical assay (Ubiquitin-Rhodamine); conditions: USP30 IC50 μM (avg), Ubiquitin-Rhodamine substrate 25 nM, 1.5 nM recombinant USP30
Sequence (Q70CQ3 57-517): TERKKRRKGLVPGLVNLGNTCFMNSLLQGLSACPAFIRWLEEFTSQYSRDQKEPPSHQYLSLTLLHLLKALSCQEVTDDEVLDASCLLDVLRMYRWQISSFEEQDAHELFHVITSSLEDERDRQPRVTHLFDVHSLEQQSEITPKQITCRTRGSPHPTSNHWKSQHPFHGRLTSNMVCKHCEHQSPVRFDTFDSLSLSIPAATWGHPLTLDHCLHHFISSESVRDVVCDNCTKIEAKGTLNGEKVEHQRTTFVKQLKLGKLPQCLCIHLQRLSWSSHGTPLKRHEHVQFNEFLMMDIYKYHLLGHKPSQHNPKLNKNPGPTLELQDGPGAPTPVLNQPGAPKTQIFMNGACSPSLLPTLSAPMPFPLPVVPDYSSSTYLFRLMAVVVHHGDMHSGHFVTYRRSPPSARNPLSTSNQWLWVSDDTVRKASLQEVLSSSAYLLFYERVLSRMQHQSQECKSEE
Description: In vitro biochemical assay to establish the potency of compounds for USP30 inhibition: a 384-well plate assay using a fluorophore tagged substrate of USP30 was used for in vitro screening of compounds. Each compound was tested at 10 different concentrations (0.5 to 10,000 nM) in duplicate wells. Compounds were pre-incubated at 25° C. for 30 min in an assay buffer consisting of 20 mM Tris/HCl, pH8.0, 1 mM GSH, 0.01% Triton X-100, 0.03% BGG and 1.5 nM recombinant USP30 (amino acids 57-517 of the human sequence with a C-terminal 6-His tag). Following the pre-incubation, Ubiquitin-Rhodamine substrate dissolved in the assay buffer was added at the final concentration of 25 nM to each well and plates were incubated at 25° C. for an additional 75 minutes. The reaction was stopped by adding 10 mM citric acid and fluorescence was read using excitation wavelength 485 nm, emission of 535 nm. Data were analyzed using Graph Pad Prism software with a four-parameter (floating slope) fit to log concentration data to determine IC50s.

| IC50 [µM] | Compound |
| --- | --- |
| 1 to 10 | CN(C)CCNS(=O)(=O)c1ccc(NC(=O)[C@H](Cc2ccccc2)NC(=O)c2ccc(F)cc2)cn1 [Compound I-109, (S)-N-(1-(6-(N-(2-(dimethylamino)ethyl)sulfamoyl)pyridin-3-ylamino)-1-oxo-3-phenylpropan-2-yl)-4-fluorobenzamide formate] |
| 0.05 to 1 | O=C(N[C@@H](Cc1ccccc1)C(=O)Nc1ccc(S(=O)(=O)NCCO)nc1)c1ccc(F)cc1 [Compound I-110, (S)-4-fluoro-N-(1-(6-(N-(2-hydroxyethyl)sulfamoyl)pyridin-3-ylamino)-1-oxo-3-phenylpropan-2-yl)benzamide] |
| 1 to 10 | CCNS(=O)(=O)c1ccc(NC(=O)[C@H](Cc2ccccc2)NC(=O)c2ccc(F)cc2)c(OC)c1 [Compound I-143, (S)-N-(1-(4-(N-ethylsulfamoyl)-2-methoxyphenylamino)-1-oxo-3-phenylpropan-2-yl)-4-fluorobenzamide] |
| 1 to 10 | COc1cc(S(=O)(=O)NC23CC(C2)C3)ccc1NC(=O)[C@H](Cc1ccccc1)NC(=O)c1ccc(F)cc1 [Compound I-145, (S)-N-(1-(4-(N-bicyclo[1.1.1]pentan-1-ylsulfamoyl)-2-methoxyphenylamino)-1-oxo-3-phenylpropan-2-yl)-4-fluorobenzamide] |
| 0.05 to 1 | COc1cc(NC(=O)[C@H](Cc2ccccc2)NC(=O)c2ccc(F)cc2)ccc1S(=O)(=O)NC(C)(C)CN1CCOCC1 [Compound I-153, (S)-4-fluoro-N-(1-(3-methoxy-4-(N-(2-methyl-1-morpholinopropan-2-yl)sulfamoyl)phenylamino)-1-oxo-3-phenylpropan-2-yl)benzamide] |
| 0.05 to 1 | COc1cc(NC(=O)[C@H](Cc2ccccc2)NC(=O)c2ccc(F)cc2)ccc1S(=O)(=O)NC(C)(C)CCN1CCOCC1 [Compound I-154, (S)-4-fluoro-N-(1-(3-methoxy-4-(N-(2-methyl-4-morpholinobutan-2-yl)sulfamoyl)phenylamino)-1-oxo-3-phenylpropan-2-yl)benzamide] |
| 1 to 10 | COCC(C)(C)NS(=O)(=O)c1ccc(NC(=O)[C@H](Cc2ccccc2)N(C)C(=O)c2ccc(F)cc2)cc1OC [Compound I-159, (S)-4-fluoro-N-(1-(3-methoxy-4-(N-(1-methoxy-2-methylpropan-2-yl)sulfamoyl)phenylamino)-1-oxo-3-phenylpropan-2-yl)-N-methylbenzamide] |
| 1 to 10 | COCC(C)(C)NS(=O)(=O)c1ccc(NC(=O)[C@H](Cc2ccccc2)N(C)C(=O)c2ccc(F)cc2)cc1 [Compound I-160, (S)-4-fluoro-N-(1-(4-(N-(1-methoxy-2-methylpropan-2-yl)sulfamoyl)phenylamino)-1-oxo-3-phenylpropan-2-yl)-N-methylbenzamide] |
| 0.05 to 1 | N#Cc1cc(NC(=O)[C@H](Cc2ccccc2)NC(=O)c2ccc(F)cc2)ccc1S(=O)(=O)NC12CC(C1)C2 [Compound I-166, (S)-N-(1-(4-(N-bicyclo[1.1.1]pentan-1-ylsulfamoyl)-3-cyanophenylamino)-1-oxo-3-phenylpropan-2-yl)-4-fluorobenzamide] |
| 0.05 to 1 | O=C(N[C@@H](Cc1ccccc1)C(=O)Nc1ccc(S(=O)(=O)NC23CC(C2)C3)c(Cl)c1)c1ccc(F)cc1 [Compound I-169, (S)-N-(1-(4-(N-bicyclo[1.1.1]pentan-1-ylsulfamoyl)-3-chlorophenylamino)-1-oxo-3-phenylpropan-2-yl)-4-fluorobenzamide] |
| 0.05 to 1 | O=C(N[C@@H](Cc1ccccc1)C(=O)Nc1ccc(S(=O)(=O)NC2COC2)c(Cl)c1)c1ccc(F)cc1 [Compound I-170, (S)-N-(1-(3-chloro-4-(N-oxetan-3-ylsulfamoyl)phenylamino)-1-oxo-3-phenylpropan-2-yl)-4-fluorobenzamide] |
| 0.05 to 1 | COCCC(C)(C)NS(=O)(=O)c1ccc(NC(=O)[C@H](Cc2ccccc2)NC(=O)c2ccc(F)cc2)cc1Cl [Compound I-171, (S)-N-(1-(3-chloro-4-(N-(4-methoxy-2-methylbutan-2-yl)sulfamoyl)phenylamino)-1-oxo-3-phenylpropan-2-yl)-4-fluorobenzamide] |
| 0.05 to 1 | CC(C)(C#N)NS(=O)(=O)c1ccc(NC(=O)[C@H](Cc2ccccc2)NC(=O)c2ccc(F)cc2)cc1 [Compound I-172, (S)-N-(1-(4-(N-(2-cyanopropan-2-yl)sulfamoyl)phenylamino)-1-oxo-3-phenylpropan-2-yl)-4-fluorobenzamide] |
| 0.05 to 1 | CC(C)(C#N)NS(=O)(=O)c1ccc(NC(=O)[C@H](Cc2ccccc2)NC(=O)c2ccc(F)cc2)cn1 [Compound I-176, (S)-N-(1-(6-(N-(2-cyanopropan-2-yl)sulfamoyl)pyridin-3-ylamino)-1-oxo-3-phenylpropan-2-yl)-4-fluorobenzamide] |
| 0.05 to 1 | C#CC(C)(C)NS(=O)(=O)c1ccc(NC(=O)[C@H](Cc2ccccc2)NC(=O)c2ccc(F)cc2)cn1 [Compound I-177, (S)-4-fluoro-N-(1-(6-(N-(2-methylbut-3-yn-2-yl)sulfamoyl)pyridin-3-ylamino)-1-oxo-3-phenylpropan-2-yl)benzamide] |
| 0.05 to 1 | O=C(N[C@@H](Cc1ccccc1)C(=O)Nc1ccc(S(=O)(=O)N[C@@H]2CCOC2)nc1)c1ccc(F)cc1 [Compound I-179, 4-fluoro-N-((S)-1-oxo-3-phenyl-1-(6-(N-((R)-tetrahydrofuran-3-yl)sulfamoyl)pyridin-3-ylamino)propan-2-yl)benzamide] |
| 0.05 to 1 | COc1cc(NC(=O)[C@H](Cc2ccccc2)NC(=O)c2ccc(F)cc2)ccc1S(=O)(=O)NC(C)(C)C#N [Compound I-180, (S)-N-(1-(4-(N-(2-cyanopropan-2-yl)sulfamoyl)-3-methoxyphenylamino)-1-oxo-3-phenylpropan-2-yl)-4-fluorobenzamide] |
| 0.05 to 1 | C#CC(C)(C)NS(=O)(=O)c1ccc(NC(=O)[C@H](Cc2ccccc2)NC(=O)c2ccc(F)cc2)cc1OC [Compound I-181, (S)-4-fluoro-N-(1-(3-methoxy-4-(N-(2-methylbut-3-yn-2-yl)sulfamoyl)phenylamino)-1-oxo-3-phenylpropan-2-yl)benzamide] |

same assay, conditions: read-out: USP30 IC50 μM (avg), Ubiquitin-Rhodamine substrate 25 nM, 1.5 nM recombinant USP30

| IC50 [µM] | Compound |
| --- | --- |
| > 10 | CC(C)(C)NS(=O)(=O)c1ccc(NC(=O)C2Cc3ccncc3N2C(=O)c2ccc(F)cc2)cc1 (stereo not shown) [Compound I-56, N-(4-(N-tert-butylsulfamoyl)phenyl)-1-(4-fluorobenzoyl)-2,3-dihydro-1H-pyrrolo[2,3-c]pyridine-2-carboxamide] |
| > 10 | CC(C)(C)NS(=O)(=O)c1ccc(NC(=O)[C@H](Cc2ccccc2)NC(=O)C2COC2)cc1 [Compound I-86, (S)-N-(1-(4-(N-tert-butylsulfamoyl)phenylamino)-1-oxo-3-phenylpropan-2-yl)oxetane-3-carboxamide] |
| > 10 | O=C(NC1(C(=O)Nc2ccc(S(=O)(=O)NC3CC3)cc2)Cc2ccccc2C1)c1ccc(F)cc1 [Compound I-103, N-(4-(N-cyclopropylsulfamoyl)phenyl)-2-(4-fluorobenzamido)-2,3-dihydro-1H-indene-2-carboxamide] |
| > 10 | CN(C)S(=O)(=O)c1cccc2c(NC(=O)[C@H](Cc3ccccc3)NC(=O)C3CCCCC3)cccc12 [Compound I-127, (S)-N-(1-(5-(N,N-dimethylsulfamoyl)naphthalen-1-ylamino)-1-oxo-3-phenylpropan-2-yl)cyclohexanecarboxamide] |
| > 10 | CN(C)S(=O)(=O)c1cccc2c(NC(=O)[C@H](Cc3ccccc3)NC(=O)c3ccc(F)cc3)cccc12 [Compound I-128, (S)-N-(1-(5-(N,N-dimethylsulfamoyl)naphthalen-1-ylamino)-1-oxo-3-phenylpropan-2-yl)-4-fluorobenzamide] |
| < 0.05 | CC(C)(CCN1CCOCC1)NS(=O)(=O)c1ccc(NC(=O)[C@H](Cc2ccccc2)NC(=O)c2ccc(F)cc2)cc1 [Compound I-163, (S)-4-fluoro-N-(1-(4-(N-(2-methyl-4-morpholinobutan-2-yl)sulfamoyl)phenylamino)-1-oxo-3-phenylpropan-2-yl)benzamide] |
| > 10 | CC(C)(C)NS(=O)(=O)c1ccc(NC(=O)[C@H](Cc2ccccc2)NS(=O)(=O)c2ccc(F)cc2)cc1 [Compound I-165, (S)-N-(4-(N-tert-butylsulfamoyl)phenyl)-2-(4-fluorophenylsulfonamido)-3-phenylpropanamide] |
| < 0.05 | CC(C)(C)NS(=O)(=O)c1ccc(NC(=O)[C@H](Cc2ccccc2)NC(=O)c2ccc(F)cc2)cc1C#N [Compound I-167, (S)-N-(1-(4-(N-tert-butylsulfamoyl)-3-cyanophenylamino)-1-oxo-3-phenylpropan-2-yl)-4-fluorobenzamide] |
| < 0.05 | CC(C)(C)NS(=O)(=O)c1ccc(NC(=O)[C@H](Cc2ccccc2)NC(=O)c2ccc(F)cc2)cc1Cl [Compound I-168, (S)-N-(1-(4-(N-tert-butylsulfamoyl)-3-chlorophenylamino)-1-oxo-3-phenylpropan-2-yl)-4-fluorobenzamide] |
| < 0.05 | C#CC(C)(C)NS(=O)(=O)c1ccc(NC(=O)[C@H](Cc2ccccc2)NC(=O)c2ccc(F)cc2)cc1 [Compound I-173, (S)-4-fluoro-N-(1-(4-(N-(2-methylbut-3-yn-2-yl)sulfamoyl)phenylamino)-1-oxo-3-phenylpropan-2-yl)benzamide] |
| < 0.05 | O=C(N[C@@H](Cc1ccccc1)C(=O)Nc1ccc(S(=O)(=O)N[C@H]2CCOC2)cc1)c1ccc(F)cc1 [Compound I-174, 4-fluoro-N-((S)-1-oxo-3-phenyl-1-(4-(N-((S)-tetrahydrofuran-3-yl)sulfamoyl)phenylamino)propan-2-yl)benzamide] |
| < 0.05 | O=C(N[C@@H](Cc1ccccc1)C(=O)Nc1ccc(S(=O)(=O)N[C@H]2CCOC2)nc1)c1ccc(F)cc1 [Compound I-178, 4-fluoro-N-((S)-1-oxo-3-phenyl-1-(6-(N-((S)-tetrahydrofuran-3-yl)sulfamoyl)pyridin-3-ylamino)propan-2-yl)benzamide] |
| < 0.05 | COc1cc(NC(=O)[C@H](Cc2ccccc2)NC(=O)c2ccc(F)cc2)ccc1S(=O)(=O)N[C@H]1CCOC1 [Compound I-182, 4-fluoro-N-((S)-1-(3-methoxy-4-(N-((S)-tetrahydrofuran-3-yl)sulfamoyl)phenylamino)-1-oxo-3-phenylpropan-2-yl)benzamide] |
